We go through 17 molecules from publication PMC10786919, “Design-rules for stapled peptides with in vivo activity and their application to Mdm2/X antagonists” (Nature Communications, 2024).

As usually defined, the EC50 is the concentration needed to bring the measured effect to its halfway point.

This assay has as its system p53 responsive β-lactamase reporter in HCT116 cells. Briefly: cells. The format is cell-based. The note with it: 0% FBS 4Hr. Here is the method: HCT116 cells were stably transfected with a p53 responsive β-lactamase reporter and expanded in McCoy’s 5 A Medium with 10% fetal bovine serum (FBS), Blasticidin, and Penicillin/Streptomycin and then transferred to 1.5 ml freezing vials and stored under liquid nitrogen in growth media containing 5% DMSO. […] The cells were then seeded into a 384-well plate at a density of 8000 cells per well. […] The final working concentration of DMSO was 0.5%. β-lactamase activity was detected using the ToxBLAzer Dual Screen (Invitrogen), as per the manufacturer’s instructions. Measurements were made using the Envision multiplate reader (Perkin–Elmer). […] Measurements were taken a minimum of three times (biological replicates) and values are reported as geometric means of the replicates.

Setting [1] is: read-out: p53 reporter assay EC50.
[2] abbreviates: read-out: p53 reporter assay: EC50.

Like-named read-outs stand apart in the source and are kept apart here. Positions of bridges follow the written chain, without caps; N, C: chain ends. Non-standard residues stand in square brackets, D forms with d. Residues, ends and D or L forms follow the SMILES beside them. R8 = C=CCCCCCC[C@@](C)(N)C(=O)O; Cha = N[C@@H](CC1CCCCC1)C(=O)O; R5 = C=CCCC[C@@](C)(N)C(=O)O; S5 = C=CCCC[C@](C)(N)C(=O)O; Ahx = NCCCCCC(=O)O A value given as a limit tells only on which side of the number the result lay.

`CC(=O)N[C@@H](CCCCN)C(=O)N[C@@H](CCCCN)C(=O)N[C@@H](CCCCN)C(=O)NCCCCCC(=O)N[C@H](C(=O)N[C@@H](CO)C(=O)N[C@@H](C)C(=O)N[C@]1(C)CCCCCCC=CCCC[C@@](C)(C(=O)N[C@@H](CCC(=O)O)C(=O)N[C@@H](CC(N)=O)C(=O)N[C@@H](Cc2ccccc2)C(N)=O)NC(=O)[C@H](CC(C)C)NC(=O)[C@H](CC(C)C)NC(=O)[C@H](C)NC(=O)[C@H](Cc2c[nH]c3ccccc23)NC(=O)[C@H](Cc2ccc(O)cc2)NC(=O)[C@H](CCC(=O)O)NC1=O)[C@@H](C)O` [MP-070] (Ac-KKK[Ahx]TSA[R8]EYWALL[S5]ENF-NH2; staple 8-15): the EC50 under setting [1] was over 50 µM. For the molecule `CC(=O)N[C@H](C(=O)N[C@@H](CO)C(=O)N[C@@H](Cc1ccccc1)C(=O)N[C@]1(C)CCCC=CCCC[C@](C)(C(=O)N[C@@H](CC(C)C)C(=O)N[C@@H](CC(C)C)C(=O)N2CCC[C@H]2C(=O)N[C@@H](CCC(=O)O)C(=O)N[C@@H](CC(N)=O)C(=O)N[C@@H](Cc2ccccc2)C(N)=O)NC(=O)[C@H](Cc2c[nH]c3ccccc23)NC(=O)[C@H](Cc2ccc(O)cc2)NC(=O)[C@H](CCC(=O)O)NC1=O)[C@@H](C)O` [MP-078] (Ac-TSF[R5]EYW[R5]LLPENF-NH2; staple 4-8), the half-maximal effective concentration (EC50) under setting [2] worked out at 37.7 µM. Consider `CC(=O)N[C@H](C(=O)N[C@@H](CO)C(=O)N[C@@H](Cc1ccccc1)C(=O)N[C@]1(C)CCCCCCC=CCCC[C@@](C)(C(=O)N[C@@H](CCC(=O)O)C(=O)N[C@@H](CC(N)=O)C(=O)N[C@H](Cc2ccccc2)C(N)=O)NC(=O)[C@H](CC(C)C)NC(=O)[C@H](CC(C)C)NC(=O)[C@H](C)NC(=O)[C@H](Cc2c[nH]c3ccccc23)NC(=O)[C@H](Cc2ccc(O)cc2)NC(=O)[C@H](CCC(=O)O)NC1=O)[C@@H](C)O` [MP-091], for which the EC50 under setting [2] stood at 5.28 µM. As to `CC(=O)N[C@H](C(=O)N[C@@H](CO)C(=O)N[C@@H](Cc1ccccc1)C(=O)N[C@]1(C)CCCC=CCCC[C@](C)(C(=O)N[C@@H](CC(C)C)C(=O)N[C@@H](CC(C)C)C(=O)N2CCC[C@H]2C(=O)N[C@@H](CCC(=O)O)C(=O)N[C@@H](CC(N)=O)C(=O)N[C@@H](Cc2ccc(O)cc2)C(N)=O)NC(=O)[C@H](Cc2c[nH]c3ccccc23)NC(=O)[C@H](Cc2ccc(O)cc2)NC(=O)[C@H](CCC(=O)O)NC1=O)[C@@H](C)O` [MP-2082] (Ac-TSF[R5]EYW[R5]LLPENY-NH2; staple 4-8), the EC50 under setting [2] is 43 µM. Take `CC(=O)N[C@H](C(=O)N[C@@H](CO)C(=O)N[C@@H](Cc1ccccc1)C(=O)N[C@]1(C)CCCCCC/C=C\CCC[C@@](C)(C(N)=O)NC(=O)[C@H](CC(C)C)NC(=O)[C@H](CC(C)C)NC(=O)[C@H](C)NC(=O)[C@H](Cc2c[nH]c3ccccc23)NC(=O)[C@H](Cc2ccc(O)cc2)NC(=O)[C@H](CCC(=O)O)NC1=O)[C@@H](C)O` [MP-2090]: the 50% effective concentration (EC50) under setting [2] is 5.78 µM. On to `CC(=O)N[C@H](C(=O)N[C@@H](CO)C(=O)N[C@@H](Cc1ccccc1)C(=O)N[C@]1(C)CCCCCCC=CCCC[C@@](C)(C(=O)N[C@@H](CCC(=O)O)C(=O)N[C@@H](CC(N)=O)C(N)=O)NC(=O)[C@H](CC(C)C)NC(=O)[C@H](CC(C)C)NC(=O)[C@H](C)NC(=O)[C@H](Cc2c[nH]c3ccccc23)NC(=O)[C@H](Cc2ccc(O)cc2)NC(=O)[C@H](CCC(=O)O)NC1=O)[C@@H](C)O` [MP-086], for which, under setting [2], the EC50 was determined as 17.4 µM. For `CC(=O)N[C@@H](CCCCN)C(=O)N[C@@H](CCCCN)C(=O)NCCCCCC(=O)N[C@H](C(=O)N[C@@H](CO)C(=O)N[C@@H](C)C(=O)N[C@]1(C)CCCCCCC=CCCC[C@@](C)(C(=O)N[C@@H](CCC(=O)O)C(=O)N[C@@H](CC(N)=O)C(=O)N[C@@H](Cc2ccccc2)C(N)=O)NC(=O)[C@H](CC(C)C)NC(=O)[C@H](CC(C)C)NC(=O)[C@H](C)NC(=O)[C@H](Cc2c[nH]c3ccccc23)NC(=O)[C@H](Cc2ccc(O)cc2)NC(=O)[C@H](CCC(=O)O)NC1=O)[C@@H](C)O` [MP-069] (Ac-KK[Ahx]TSA[R8]EYWALL[S5]ENF-NH2; staple 7-14), the EC50 under setting [1] was over 50 µM. On the same count and under the same terms, in the case of `CC(=O)N[C@H](C(=O)N[C@@H](CO)C(=O)N[C@@H](Cc1ccccc1)C(=O)N[C@]1(C)CCCCCCC=CCCC[C@@](C)(C(N)=O)NC(=O)[C@H](CC2CCCCC2)NC(=O)[C@H](CC(C)C)NC(=O)[C@H](C)NC(=O)[C@H](Cc2c[nH]c3ccccc23)NC(=O)[C@H](Cc2ccc(O)cc2)NC(=O)[C@H](CCC(=O)O)NC1=O)[C@@H](C)O` [MP-064] (Ac-TSF[R8]EYWAL[Cha][S5]-NH2; staple 4-11) it was 0.89 µM. Consider `CC(=O)N[C@H](C(=O)N[C@@H](CO)C(=O)N[C@@H](C)C(=O)N[C@]1(C)CCCCCCC=CCCC[C@@](C)(C(N)=O)NC(=O)[C@H](CC(C)C)NC(=O)[C@H](CC(C)C)NC(=O)[C@H](C)NC(=O)[C@H](Cc2c[nH]c3ccccc23)NC(=O)[C@H](Cc2ccc(O)cc2)NC(=O)[C@H](CCC(=O)O)NC1=O)[C@@H](C)O` [MP-067] (Ac-TSA[R8]EYWALL[S5]-NH2; staple 4-11), for which the half-maximal effective concentration (EC50) under setting [1] is over 50 µM. In the case of `CC(=O)N[C@H](C(=O)N[C@@H](CO)C(=O)N[C@@H](Cc1ccccc1)C(=O)N[C@]1(C)CCCC=CCCC[C@](C)(C(=O)N[C@@H](CC(C)C)C(=O)N[C@@H](CC(C)C)C(=O)N[C@@H](CO)C(=O)N[C@@H](CCC(=O)O)C(=O)N[C@@H](CC(N)=O)C(N)=O)NC(=O)[C@H](Cc2c[nH]c3ccccc23)NC(=O)[C@H](Cc2ccc(O)cc2)NC(=O)[C@H](CCC(=O)O)NC1=O)[C@@H](C)O` [MP-2087] (Ac-TSF[R5]EYW[R5]LLSEN-NH2; staple 4-8), under setting [2], the EC50 came out at 24.7 µM. Regarding `CC(=O)N[C@@H](CCCCN)C(=O)NCCCCCC(=O)N[C@H](C(=O)N[C@@H](CO)C(=O)N[C@@H](Cc1ccccc1)C(=O)N[C@]1(C)CCCCCCCCCCC[C@@](C)(C(=O)N[C@@H](CCC(=O)O)C(=O)N[C@@H](CC(N)=O)C(=O)N[C@@H](Cc2ccccc2)C(N)=O)NC(=O)[C@H](CC(C)C)NC(=O)[C@H](CC(C)C)NC(=O)[C@H](C)NC(=O)[C@H](Cc2c[nH]c3ccccc23)NC(=O)[C@H](Cc2ccc(O)cc2)NC(=O)[C@H](CCC(=O)O)NC1=O)[C@@H](C)O` [MP-049], the EC50 under setting [1] was determined as 8.74 µM. Consider `CC(=O)N[C@@H](CCCCN)C(=O)N[C@@H](CCCCN)C(=O)NCCCCCC(=O)N[C@H](C(=O)N[C@@H](CO)C(=O)N[C@@H](Cc1ccccc1)C(=O)N[C@]1(C)CCCCCC/C=C\CCC[C@@](C)(C(=O)N[C@@H](CCC(=O)O)C(=O)N[C@@H](CC(N)=O)C(=O)N[C@@H](Cc2ccccc2)C(N)=O)NC(=O)[C@H](CC(C)C)NC(=O)[C@H](CC(C)C)NC(=O)[C@H](C)NC(=O)[C@H](Cc2c[nH]c3ccccc23)NC(=O)[C@H](Cc2ccc(O)cc2)NC(=O)[C@H](CCC(=O)O)NC1=O)[C@@H](C)O` [MP-095] (Ac-KK[Ahx]TSF[R8]EYWALL[S5]ENF-NH2; staple (Z) 7-14), for which the EC50 under setting [2] came to 5.83 µM.

As to `CC(=O)N[C@H](C(=O)N[C@@H](CO)C(=O)N[C@@H](Cc1ccccc1)C(=O)N[C@]1(C)CCCCCCC=CCCC[C@@](C)(C(=O)N[C@H](CCC(=O)O)C(=O)N[C@@H](CC(N)=O)C(=O)N[C@@H](Cc2ccccc2)C(N)=O)NC(=O)[C@H](CC(C)C)NC(=O)[C@H](CC(C)C)NC(=O)[C@H](C)NC(=O)[C@H](Cc2c[nH]c3ccccc23)NC(=O)[C@H](Cc2ccc(O)cc2)NC(=O)[C@H](CCC(=O)O)NC1=O)[C@@H](C)O` [MP-092], the 50% effective concentration (EC50) under setting [2] came out at 6.33 µM. Consider `CC(=O)N[C@H](C(=O)N[C@@H](CO)C(=O)N[C@@H](Cc1ccccc1)C(=O)N[C@]1(C)CCCCCCCCCCC[C@@](C)(C(N)=O)NC(=O)[C@H](CC(C)C)NC(=O)[C@H](CC(C)C)NC(=O)[C@H](C)NC(=O)[C@H](Cc2c[nH]c3ccccc23)NC(=O)[C@H](Cc2ccc(O)cc2)NC(=O)[C@H](CCC(=O)O)NC1=O)[C@@H](C)O` [MP-089], for which the half-maximal effective concentration (EC50) under setting [2] was 1.23 µM. Consider `CC(=O)N[C@@H](CCCCN)C(=O)N[C@@H](CCCCN)C(=O)N[C@@H](CCCCN)C(=O)NCCCCCC(=O)N[C@H](C(=O)N[C@@H](CO)C(=O)N[C@@H](CC(C)C)C(=O)N[C@]1(C)CCCCCCC=CCCC[C@@](C)(C(=O)N[C@@H](CCC(=O)O)C(=O)N[C@@H](CC(N)=O)C(=O)N[C@@H](Cc2ccccc2)C(N)=O)NC(=O)[C@H](Cc2c[nH]c3ccccc23)NC(=O)[C@H](CC(C)C)NC(=O)[C@H](C)NC(=O)[C@H](Cc2ccccc2)NC(=O)[C@H](Cc2ccc(O)cc2)NC(=O)[C@H](CCC(=O)O)NC1=O)[C@@H](C)O` [MP-075] (Ac-KKK[Ahx]TSL[R8]EYFALW[S5]ENF-NH2; staple 8-15), for which the EC50 under setting [2] was over 50 µM.

In the case of `CC(=O)N[C@@H](CCCCN)C(=O)N[C@@H](CCCCN)C(=O)N[C@@H](CO)C(=O)NCC(=O)N[C@@H](CO)C(=O)NCC(=O)N[C@H](C(=O)N[C@@H](CO)C(=O)N[C@@H](Cc1ccccc1)C(=O)N[C@]1(C)CCCCCCC=CCCC[C@@](C)(C(=O)N[C@@H](CCC(=O)O)C(=O)N[C@@H](CC(N)=O)C(=O)N[C@@H](Cc2ccccc2)C(N)=O)NC(=O)[C@H](CC(C)C)NC(=O)[C@H](CC(C)C)NC(=O)[C@H](C)NC(=O)[C@H](Cc2c[nH]c3ccccc23)NC(=O)[C@H](Cc2ccc(O)cc2)NC(=O)[C@H](CCC(=O)O)NC1=O)[C@@H](C)O` [MP-052] (Ac-KKSGSGTSF[R8]EYWALL[S5]ENF-NH2; staple 10-17), the EC50 under setting [1] worked out at 12.9 µM.

With `CC(=O)N[C@@H](CCCCN)C(=O)NCCCCCC(=O)N[C@H](C(=O)N[C@@H](CO)C(=O)N[C@@H](Cc1ccccc1)C(=O)N[C@]1(C)CCCCCC/C=C\CCC[C@@](C)(C(=O)N[C@@H](CCC(=O)O)C(=O)N[C@@H](CC(N)=O)C(=O)N[C@@H](Cc2ccccc2)C(N)=O)NC(=O)[C@H](CC(C)C)NC(=O)[C@H](CC(C)C)NC(=O)[C@H](C)NC(=O)[C@H](Cc2c[nH]c3ccccc23)NC(=O)[C@H](Cc2ccc(O)cc2)NC(=O)[C@H](CCC(=O)O)NC1=O)[C@@H](C)O` [MP-2094], the EC50 under setting [2] was 6.49 µM.
